The subject of assay [1] is leukocyte esterase (LE). In words: Electrochemical LE assay in human urine: glucose released from glucosyl ester, read on glucose test strip with potentiostat. As to conditions: for sample incubation time with ester to yield enough glucose to be above the detection limit of the potentiostat/glucose strip system: human urine spiked with LE, 5.5 mM ester, glucose detection limit 5 μM. In kind it is biochemical. The method, then: (§1) The human leukocyte suspension in 154 mM NaCl solution (cat. No. MBS173116, 0.0867 mg mL^−1 leukocyte esterase (LE) protein, 4×10^8 WBC mL^−1) was purchased from MyBioSource (San Diego, Calif.). The suspension was diluted 10 times with a 90:10 vol. % mixture of 50 mM phosphate buffer saline (PBS, pH 7.40, 154 mM NaCl) solution and dimethylsulfoxide, left for 10 min to lyse the leukocytes chemically, sonicated for 30 s with a Q125 Qsonica probe (20% power) to further lyse them mechanically, and centrifuged at 15 000×g for 30 min. The resulting supernatant that contained LE was stored at −20° C.
The human synovial fluid (DLS0092658) was purchased from Discovery Life Sciences (Los Osos, Calif.) and stored at −70° C. when not in use. The clean-catch midstream portion of human urine (˜15.0 mL) was collected early in the morning in a 50.0-mL sterile centrifuge tube (Fisher Scientific, Pittsburgh, Pa.) centrifuged at 600×g for 5 min, and the supernatant was stored at −20° C. The synovial fluid and urine were spiked with known amount of LE before the analysis.
Electrochemical Measurements. The glucose strip was inserted into an electronic holder (DropSens, Llanera, Spain), which was then connected to a CHE 832B potentiostat (other potentiostats could also be used). The strip was used in a 2-electrode mode with the counter and reference electrodes connected together as a single cathode and a working electrode serving as an anode (the strip's fill-detector electrode was not used). The potential applied to a working electrode was equal to 0.15 V vs. strip's reference/counter electrode.
The 0.15 V potential was applied to a glucose strip, which was then contacted at time t=0 s with a small drop of sample (˜10 μL) that was placed on a Petri dish (FIG. 2). The amperogram obtained in such a way was integrated between t=2 and t=22 s to determine the charge Q flowing through the strip. Two charges were always determined: Q(ester) for a sample incubated with 5.5 mM ester for 5 min, and Q(no ester) for an original sample without ester. The difference in charge ΔQ [=Q(ester)−Q(no ester)] was proportional to the enzymatic activity of LE in a sample.
The samples were incubated with each ester to release glucose in the direct proportion to the enzymatic activity of LE in a sample. The released glucose was then detected at a commercial glucose test strip. A laboratory potentiostat was used to read the glucose strip. The strip was inserted in an electronic holder to facilitate the measurements (FIG. 2). Such a strip-potentiostat measuring system provided a much lower limit of glucose detection (5.0 μM, S/N=3; FIG. 3A) and a linear range at least up to 100 μM glucose (FIG. 3B), which allowed for a much shorter (minutes) incubation times (FIG. 4).

For assay [2], the system named is leukocyte esterase (LE). In words: Electrochemical LE assay in human synovial fluid: glucose released from glucosyl ester, read on glucose test strip with potentiostat. In kind it is biochemical. As to conditions: human synovial fluid spiked with LE; 5.5 mM ester. The method, then:
as §1
The human synovial fluid (DLS0092658) was purchased from Discovery Life Sciences (Los Osos, Calif.) and stored at −70° C. when not in use. […]
The 0.15 V potential was applied to a glucose strip, which was then contacted at time t=0 s with a small drop of sample (˜10 μL) that was placed on a Petri dish (FIG. 2). […] Two charges were always determined: Q(ester) for a sample incubated with 5.5 mM ester for 5 min, and Q(no ester) for an original sample without ester. […]
The samples were incubated with each ester to release glucose in the direct proportion to the enzymatic activity of LE in a sample. The released glucose was then detected at a commercial glucose test strip. A laboratory potentiostat was used to read the glucose strip. […]

For `Cc1ccc(S(=O)(=O)N[C@@H](C)C(=O)OCCCC(=O)O[C@@H]2O[C@H](CO)[C@@H](O)[C@H](O)[C@H]2O)cc1` [ester α, (2S,3R,4S,5S,6R)-3,4,5-trihydroxy-6-(hydroxymethyl)oxan-2-yl 4-{[(2S)-2-(4-methylbenzenesulfonamido)propanoyl]oxy}butanoate], the “sample incubation time with ester to yield enough glucose to be above the detection limit of the potentiostat/glucose strip system” value in the assay on leukocyte esterase (LE) [1] stood at 5 min. Also, in the assay with leukocyte esterase (LE) [2], the “sample incubation time with ester before reading the glucose strip” value is 5 min.
`Cc1ccc(S(=O)(=O)N[C@@H](C)C(=O)OCCNC(=O)O[C@H]2O[C@H](CO)[C@@H](O)[C@H](O)[C@H]2O)cc1` [ester γ, 2-[({[(2R,3R,4S,5S,6R)-3,4,5-trihydroxy-6-(hydroxymethyl)oxan-2-yl]oxy}carbonyl)amino]ethyl (2S)-2-(4-methylbenzenesulfonamido)propanoate]: the “kinetics of the enzymatic reaction of LE with the ester, compared to ester α” value at leukocyte esterase (LE) [1] (ascribed from longer incubation time and lower calibration slope) is recorded as “slower kinetics”. The “sample incubation time with ester to yield enough glucose to be above the detection limit of the potentiostat/glucose strip system” value in the assay with leukocyte esterase (LE) [1] was 10 min. Moreover, in the assay on leukocyte esterase (LE) [1] (human urine, ester γ 10 min vs ester α 5 min incubation (FIG. 8)), the “calibration slope (ΔQ vs LE concentration) lower than with ester α” value is on record as ~10%.

Values taken from patent US20230203560A1, “GLUCOSYL ESTERS FOR INFECTION SCREENING” (Board of Regents, The University of Texas System, priority 2020, published 2023).
